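GI50 marks 50% less growth. TGI: total growth inhibition.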
How the values were obtained:
Assay in all cases: NCI anticancer screen, dose series, 384-well format
MDA-MB-468 breast = tested on: MDA-MB-468 breast
SF-295 CNS = tested on: SF-295 CNS
CAKI-1 renal = tested on: CAKI-1 renal
UO-31 renal = tested on: UO-31 renal
HS 578T breast = tested on: HS 578T breast
OVCAR-5 ovarian = tested on: OVCAR-5 ovarian
MDA-MB-435 melanoma = tested on: MDA-MB-435 melanoma
SK-MEL-28 melanoma = tested on: SK-MEL-28 melanoma
RPMI-8226 leukemia = tested on: RPMI-8226 leukemia
SK-OV-3 ovarian = tested on: SK-OV-3 ovarian
HOP-62 NSCLC = tested on: HOP-62 NSCLC
U251 glioblastoma = tested on: U251 glioblastoma
HCT-15 colon = tested on: HCT-15 colon
CCRF-CEM leukemia = tested on: CCRF-CEM leukemia
SNB-75 CNS = tested on: SNB-75 CNS
K-562 leukemia = tested on: K-562 leukemia
KM12 colon = tested on: KM12 colon
IGROV1 ovarian = tested on: IGROV1 ovarian
NCI-H23 lung = tested on: NCI-H23 lung
DU-145 prostate = tested on: DU-145 prostate
UACC-62 melanoma = tested on: UACC-62 melanoma
PC-3 prostate = tested on: PC-3 prostate
OVCAR-3 ovarian = tested on: OVCAR-3 ovarian
OVCAR-8 ovarian = tested on: OVCAR-8 ovarian
MALME-3M melanoma = tested on: MALME-3M melanoma
A549 NSCLC = tested on: A549 NSCLC
UACC-257 melanoma = tested on: UACC-257 melanoma
T-47D breast = tested on: T-47D breast
HOP-92 NSCLC = tested on: HOP-92 NSCLC
NCI-H522 lung = tested on: NCI-H522 lung
MDA-MB-231 breast = tested on: MDA-MB-231 breast
HCT-116 colon = tested on: HCT-116 colon
HT29 colon = tested on: HT29 colon
ACHN renal = tested on: ACHN renal
A498 renal = tested on: A498 renal
OVCAR-4 ovarian = tested on: OVCAR-4 ovarian
SF-268 CNS = tested on: SF-268 CNS
LOX IMVI melanoma = tested on: LOX IMVI melanoma
NCI/ADR-RES ovarian = tested on: NCI/ADR-RES ovarian
SF-539 CNS = tested on: SF-539 CNS
EKVX NSCLC = tested on: EKVX NSCLC
NCI-H226 lung = tested on: NCI-H226 lung
786-0 renal = tested on: 786-0 renal
SN12C renal = tested on: SN12C renal
BT-549 breast = tested on: BT-549 breast
RXF 393 renal = tested on: RXF 393 renal
M14 melanoma = tested on: M14 melanoma
MCF7 breast = tested on: MCF7 breast
NCI-H322M lung = tested on: NCI-H322M lung
SW-620 colon = tested on: SW-620 colon
SK-MEL-2 melanoma = tested on: SK-MEL-2 melanoma

Question: Which GI50 (MDA-MB-468 breast) does the source give for `CC(=O)C1(O)Cc2c(O)c3c(c(O)c2C(OC2CC(N)C(O)C(C)O2)C1)C(=O)c1ccccc1C3=O` (stereo not given) here?
Answer: Its GI50 is 14.3 nM.

Question: What about the TGI (MDA-MB-468 breast) of the same compound?
Answer: The TGI was 34.3 nM.

Question: What about the GI50 (SF-295 CNS) of the same compound?
Answer: The GI50 was 19 nM.

Question: What about the TGI (SF-295 CNS) of the same compound?
Answer: The TGI was 51.7 nM.

Question: What about the GI50 (CAKI-1 renal) of the same compound?
Answer: The GI50 was 30.9 nM.

Question: And the TGI (CAKI-1 renal)?
Answer: Its TGI is 169 nM.

Question: And the GI50 (UO-31 renal)?
Answer: The GI50 was 76 nM.

Question: What about the TGI (UO-31 renal) of the same compound?
Answer: The TGI was 209 nM.

Question: And the GI50 (HS 578T breast)?
Answer: The GI50 was 11.8 nM.

Question: And the TGI (HS 578T breast)?
Answer: Its TGI is 129 nM.

Question: What about the GI50 (OVCAR-5 ovarian) of the same compound?
Answer: Its GI50 is 44.7 nM.

Question: And the TGI (OVCAR-5 ovarian)?
Answer: The TGI was 242 nM.

Question: And the GI50 (MDA-MB-435 melanoma)?
Answer: Its GI50 is 78.6 nM.

Question: What about the TGI (MDA-MB-435 melanoma) of the same compound?
Answer: Its TGI is 230 nM.

Question: And the GI50 (SK-MEL-28 melanoma)?
Answer: The GI50 was 93.8 nM.

Question: And the TGI (SK-MEL-28 melanoma)?
Answer: Its TGI is 379 nM.

Question: What about the TGI (RPMI-8226 leukemia) of the same compound?
Answer: Its TGI is 19.1 nM.

Question: What about the GI50 (SK-OV-3 ovarian) of the same compound?
Answer: Its GI50 is 27.7 nM.

Question: And the TGI (SK-OV-3 ovarian)?
Answer: The TGI was 138 nM.

Question: What about the GI50 (HOP-62 NSCLC) of the same compound?
Answer: Its GI50 is 13.3 nM.

Question: What about the TGI (HOP-62 NSCLC) of the same compound?
Answer: The TGI was 34.6 nM.

Question: And the GI50 (U251 glioblastoma)?
Answer: Its GI50 is 20.3 nM.

Question: And the TGI (U251 glioblastoma)?
Answer: Its TGI is 105 nM.

Question: And the GI50 (HCT-15 colon)?
Answer: The GI50 was 17.8 nM.

Question: And the TGI (HCT-15 colon)?
Answer: Its TGI is 103 nM.

Question: And the TGI (CCRF-CEM leukemia)?
Answer: Its TGI is 15.6 nM.

Question: What about the GI50 (SNB-75 CNS) of the same compound?
Answer: Its GI50 is 33.4 nM.

Question: What about the TGI (SNB-75 CNS) of the same compound?
Answer: Its TGI is 144 nM.

Question: And the GI50 (K-562 leukemia)?
Answer: The GI50 was 15 nM.

Question: What about the TGI (K-562 leukemia) of the same compound?
Answer: The TGI was 116 nM.

Question: And the GI50 (KM12 colon)?
Answer: Its GI50 is 11.5 nM.

Question: What about the TGI (KM12 colon) of the same compound?
Answer: The TGI was 36.3 nM.

Question: What about the GI50 (IGROV1 ovarian) of the same compound?
Answer: The GI50 was 125 nM.

Question: And the TGI (IGROV1 ovarian)?
Answer: The TGI was 412 nM.

Question: And the GI50 (NCI-H23 lung)?
Answer: The GI50 was 23.2 nM.

Question: What about the TGI (NCI-H23 lung) of the same compound?
Answer: The TGI was 90.1 nM.

Question: What about the GI50 (DU-145 prostate) of the same compound?
Answer: Its GI50 is 11.3 nM.

Question: What about the TGI (DU-145 prostate) of the same compound?
Answer: The TGI was 136 nM.

Question: What about the GI50 (UACC-62 melanoma) of the same compound?
Answer: The GI50 was 18 nM.

Question: What about the TGI (UACC-62 melanoma) of the same compound?
Answer: Its TGI is 123 nM.

Question: And the GI50 (PC-3 prostate)?
Answer: Its GI50 is 60.5 nM.

Question: And the TGI (PC-3 prostate)?
Answer: The TGI was 214 nM.

Question: And the GI50 (OVCAR-3 ovarian)?
Answer: The GI50 was 65.3 nM.

Question: And the TGI (OVCAR-3 ovarian)?
Answer: The TGI was 257 nM.

Question: What about the GI50 (OVCAR-8 ovarian) of the same compound?
Answer: Its GI50 is 31.6 nM.

Question: And the TGI (OVCAR-8 ovarian)?
Answer: The TGI was 145 nM.

Question: What about the GI50 (MALME-3M melanoma) of the same compound?
Answer: The GI50 was 54.6 nM.

Question: What about the TGI (MALME-3M melanoma) of the same compound?
Answer: The TGI was 191 nM.

Question: And the GI50 (A549 NSCLC)?
Answer: The GI50 was 13.8 nM.

Question: What about the TGI (A549 NSCLC) of the same compound?
Answer: The TGI was 133 nM.

Question: And the GI50 (UACC-257 melanoma)?
Answer: Its GI50 is 138 nM.

Question: What about the TGI (UACC-257 melanoma) of the same compound?
Answer: The TGI was 296 nM.

Question: And the GI50 (T-47D breast)?
Answer: Its GI50 is 42.1 nM.

Question: And the TGI (T-47D breast)?
Answer: Its TGI is 296 nM.

Question: And the GI50 (HOP-92 NSCLC)?
Answer: The GI50 was 35.1 nM.

Question: What about the TGI (HOP-92 NSCLC) of the same compound?
Answer: Its TGI is 265 nM.

Question: And the GI50 (NCI-H522 lung)?
Answer: Its GI50 is 29.6 nM.

Question: What about the TGI (NCI-H522 lung) of the same compound?
Answer: Its TGI is 162 nM.

Question: What about the GI50 (MDA-MB-231 breast) of the same compound?
Answer: Its GI50 is 19.4 nM.

Question: What about the TGI (MDA-MB-231 breast) of the same compound?
Answer: The TGI was 106 nM.

Question: What about the GI50 (HCT-116 colon) of the same compound?
Answer: The GI50 was 14.6 nM.

Question: And the TGI (HCT-116 colon)?
Answer: Its TGI is 153 nM.

Question: And the GI50 (HT29 colon)?
Answer: The GI50 was 27.7 nM.

Question: And the TGI (HT29 colon)?
Answer: Its TGI is 106 nM.

Question: And the GI50 (ACHN renal)?
Answer: Its GI50 is 21.3 nM.

Question: What about the TGI (ACHN renal) of the same compound?
Answer: The TGI was 89.6 nM.

Question: And the GI50 (A498 renal)?
Answer: The GI50 was 17.5 nM.

Question: What about the TGI (A498 renal) of the same compound?
Answer: Its TGI is 146 nM.

Question: And the GI50 (OVCAR-4 ovarian)?
Answer: The GI50 was 178 nM.

Question: And the TGI (OVCAR-4 ovarian)?
Answer: Its TGI is 482 nM.

Question: And the GI50 (SF-268 CNS)?
Answer: Its GI50 is 24.9 nM.

Question: And the TGI (SF-268 CNS)?
Answer: The TGI was 126 nM.

Question: What about the GI50 (LOX IMVI melanoma) of the same compound?
Answer: The GI50 was 20.3 nM.

Question: And the TGI (LOX IMVI melanoma)?
Answer: The TGI was 139 nM.

Question: What about the GI50 (NCI/ADR-RES ovarian) of the same compound?
Answer: Its GI50 is 480 nM.

Question: And the TGI (NCI/ADR-RES ovarian)?
Answer: Its TGI is 2000 nM.

Question: And the GI50 (SF-539 CNS)?
Answer: Its GI50 is 13.5 nM.

Question: And the TGI (SF-539 CNS)?
Answer: Its TGI is 75.5 nM.

Question: And the GI50 (EKVX NSCLC)?
Answer: Its GI50 is 150 nM.

Question: And the TGI (EKVX NSCLC)?
Answer: The TGI was 973 nM.

Question: And the GI50 (NCI-H226 lung)?
Answer: Its GI50 is 25.7 nM.

Question: What about the TGI (NCI-H226 lung) of the same compound?
Answer: Its TGI is 128 nM.

Question: And the GI50 ([…]-0 renal)?
Answer: Its GI50 is 23.4 nM.

Question: What about the TGI (786-0 renal) of the same compound?
Answer: Its TGI is 112 nM.

Question: And the GI50 (SN12C renal)?
Answer: The GI50 was 15.7 nM.

Question: What about the TGI (SN12C renal) of the same compound?
Answer: The TGI was 59.7 nM.

Question: And the GI50 (BT-549 breast)?
Answer: Its GI50 is 20.1 nM.

Question: And the TGI (BT-549 breast)?
Answer: The TGI was 94.4 nM.

Question: What about the GI50 (RXF 393 renal) of the same compound?
Answer: Its GI50 is 53.9 nM.

Question: And the TGI (RXF 393 renal)?
Answer: The TGI was 197 nM.

Question: What about the GI50 (M14 melanoma) of the same compound?
Answer: The GI50 was 17.5 nM.

Question: What about the TGI (M14 melanoma) of the same compound?
Answer: The TGI was 114 nM.

Question: And the GI50 (MCF7 breast)?
Answer: Its GI50 is 24.1 nM.

Question: And the TGI (MCF7 breast)?
Answer: Its TGI is 225 nM.

Question: What about the GI50 (NCI-H322M lung) of the same compound?
Answer: Its GI50 is 190 nM.

Question: And the TGI (NCI-H322M lung)?
Answer: The TGI was 572 nM.

Question: What about the GI50 (SW-620 colon) of the same compound?
Answer: The GI50 was 13.2 nM.

Question: What about the TGI (SW-620 colon) of the same compound?
Answer: The TGI was 178 nM.

Question: What about the GI50 (SK-MEL-2 melanoma) of the same compound?
Answer: The GI50 was 51.9 nM.

Question: What about the TGI (SK-MEL-2 melanoma) of the same compound?
Answer: Its TGI is 93.2 nM.

From PubChem BioAssay (NCI)
